Source: PubChem BioAssay AID1053172 (The Scripps Research Institute Molecular Screening Center, 2014)
The source made the active and inactive calls. No rule for the calls is given here.

biological target: HIV-1 integrase / human LEDGF/p75 complex; test: blockers of LEDGF/p75-dependent integrase activity – biochemical, TR-FRET, dose response (AID 1053172); conditions: TR-FRET integrase-LEDGF/p75 DNA integration

SMILES | IC50
O=C(CCCN1C(=O)/C(=C/c2ccco2)SC1=S)Nc1ccccc1C(=O)O | 8370 nM
CCOc1ccc(Nc2ccc(N)c(S(=O)(=O)O)c2)cc1 | inactive
Oc1ccc(C[C@H]2NCCc3cc(O)c(O)cc32)cc1O | 3230 nM
Cc1ccc(-c2nn(-c3ccccc3)cc2/C=C2\SC(=S)N(CCCCCC(=O)O)C2=O)o1 | inactive
NNc1cccc(C=Cc2ccccc2)cc1=O | > 36600 nM (inactive)
CCN(CC)CCCNc1ccc2ncn3c4ccc(O)cc4c(=O)c1c23 | > 36500 nM (inactive)
CC1(C)OC(=O)C(=Cc2ccc(-c3ccc(Cl)c(C(=O)O)c3)o2)C(=O)O1 | 7910 nM
Nc1ccc2c(c1)C/C(=C/c1ccco1)C2=O | > 36600 nM (inactive)
O=C(O)c1cccc(-n2cccc2/C=C/[N+](=O)[O-])c1 | 8750 nM
O=C1NC(=Nc2ccc(O)cc2)S/C1=C\C=C\c1ccco1 | 4080 nM
C=CC1=C(C(=O)O)N2C(=O)[C@@H](NC(=O)/C(=N\OCC(=O)O)c3csc(N)n3)[C@H]2SC1 | 2890 nM
COc1cc(/C=C/C=C2/CC/C(=C/C=C/c3ccc(O)c(OC)c3)C2=O)ccc1O | 4930 nM
O=C1CCCC(O)=C1N=Nc1ccc(C(=O)O)cc1 | 2410 nM
Nc1ccc2nc3c(=O)[nH]c(=S)[nH]c3nc2c1 | 1360 nM
COC(=O)C1CCN(C(=O)c2cc(-c3ccco3)nc3ccccc23)CC1 | 5920 nM
O=C(O)COc1ccc2c(c1)O/C(=C\c1ccco1)C2=O | 1610 nM
O=C(Cc1nnc(NC(=O)c2ccccc2)s1)N/N=C\c1ccc(O)c(O)c1 | 2200 nM
C=CCn1c(SCC(=O)c2ccc(O)c(O)c2)nnc1-c1cccnc1 | 2380 nM
CCn1c(C)nc2cc(C(=O)N/N=C/c3ccc(O)c(O)c3O)ccc21 | 429 nM
CC(C)(CS(=O)(=O)[O-])NC(=O)CC[N+](C)(C)CCO | 3060 nM
Brc1ccc(-c2nn3c(-c4ccco4)nnc3s2)o1 | inactive

SMILES | IC50
C=C(C)C(=O)Nc1cccc(C2=NOC3(C2)C[C@H](C(N)=O)N(C(=O)/C=C/C)C3)c1 (some centres not stated) | 4720 nM
C=CC(=O)N1C/C(=C/c2ccc(F)cc2)C(=O)/C(=C\c2ccc(F)cc2)C1 | inactive
N#Cc1c(SCC(=O)Nc2nccs2)sc2c(O)cc(=O)[nH]c12 | 8630 nM
COc1c(O)cc2oc(-c3ccc(O)c(O)c3)cc(=O)c2c1O | 1840 nM
Cn1c(N)c(C(=O)COC(=O)c2cc(-c3ccco3)nc3ccccc23)c(=O)n(C)c1=O | 2570 nM
S=C(Nc1ccc(N2CCOCC2)cc1)Nc1ccc2nc(-c3ccco3)c(-c3ccco3)nc2c1 | > 36500 nM (inactive)
C[C@@H]1O[C@@H](Oc2c(-c3ccc(O)c(O)c3)oc3cc(O)cc(O)c3c2=O)[C@H](O)[C@H](O)[C@H]1O | 2610 nM
O=C1OC(c2cccs2)=N/C1=C/c1ccc(-c2cccc(C(=O)O)c2)o1 | inactive
O=C1Nc2ccccc2/C1=N\N=C\c1ccc(O)c(O)c1 | 696 nM
NC(=S)NN=Cc1nccc2c(N)cccc12 | > 36500 nM (inactive)
O=C(NCCCO)c1ccc2nc(-c3ccco3)c(-c3ccco3)nc2c1 | 2850 nM
C=CC1=C(C(=O)O)N2C(=O)[C@@H](NC(=O)/C(=N/OCC(=O)O)c3csc(N)n3)[C@H]2SC1 | 287 nM
NC1=CC(=O)C(=O)c2cccnc21 | 2140 nM
CC(=O)Nc1ccc2c(COC(=O)CC3Sc4ccccc4NC3=O)cc(=O)oc2c1 (configuration not stated) | > 12200 nM (inactive)
O=C1c2c(O)cc(O)cc2O[C@@]12c1c(cc(O)c3c1O[C@H](c1ccc(O)cc1)[C@@H](O)C3)O[C@@H]2c1ccc(O)cc1 | inactive
CN(C)c1ccc2cc(S(=O)(=O)O)cc(O)c2c1 | 4480 nM
O=C1C=C(O)c2[nH]c(=O)ccc2C1=O | 3800 nM
O=S(=O)(O)c1cc(O)c(N=Nc2ccc(O)cc2O)c2ccccc12 | inactive
N/C(=N\N=C/c1ccc(-c2ccc(O)c(C(=O)O)c2)o1)N[N+](=O)[O-] | 1550 nM
COCCN=c1scc(-c2ccco2)n1/N=C/c1ccc(O)c(O)c1O | 3260 nM
c1coc(-c2nnc(-c3ccco3)nn2)c1 | 1750 nM
